Experimental data from PubChem BioAssay (NCI).
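Five compound concentrations were applied to cells in 96-well plates for 48 hours; endpoints were derived by simple linear interpolation of the resulting dose-response curve. TGI: concentration producing complete growth inhibition.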

Columns and labels:
Assay in all cases: NCI-60 cell line screen, 48 h
UACC-257 melanoma = system: UACC-257 melanoma
OVCAR-4 ovarian = system: OVCAR-4 ovarian
HOP-92 NSCLC = system: HOP-92 NSCLC
786-0 renal = system: 786-0 renal
DU-145 prostate = system: DU-145 prostate
SR leukemia = system: SR leukemia
SK-MEL-28 melanoma = system: SK-MEL-28 melanoma
A549 NSCLC = system: A549 NSCLC
CAKI-1 renal = system: CAKI-1 renal
T-47D breast = system: T-47D breast
BT-549 breast = system: BT-549 breast
SK-MEL-2 melanoma = system: SK-MEL-2 melanoma
UO-31 renal = system: UO-31 renal
SF-268 CNS = system: SF-268 CNS
OVCAR-8 ovarian = system: OVCAR-8 ovarian
TK-10 renal = system: TK-10 renal
NCI-H23 lung = system: NCI-H23 lung
PC-3 prostate = system: PC-3 prostate
MCF7 breast = system: MCF7 breast
MDA-MB-435 = system: MDA-MB-435
HS 578T breast = system: HS 578T breast
HCT-15 colon = system: HCT-15 colon
HT29 colon = system: HT29 colon
MOLT-4 leukemia = system: MOLT-4 leukemia
OVCAR-3 ovarian = system: OVCAR-3 ovarian
OVCAR-5 ovarian = system: OVCAR-5 ovarian
K-562 leukemia = system: K-562 leukemia
RPMI-8226 leukemia = system: RPMI-8226 leukemia
SW-620 colon = system: SW-620 colon
CCRF-CEM leukemia = system: CCRF-CEM leukemia
KM12 colon = system: KM12 colon
M14 melanoma = system: M14 melanoma
NCI-H460 lung = system: NCI-H460 lung
UACC-62 melanoma = system: UACC-62 melanoma
NCI/ADR-RES ovarian = system: NCI/ADR-RES ovarian
HL-60(TB) leukemia = system: HL-60(TB) leukemia
ACHN renal = system: ACHN renal
SNB-75 CNS = system: SNB-75 CNS
NCI-H522 lung = system: NCI-H522 lung
HCT-116 colon = system: HCT-116 colon
SN12C renal = system: SN12C renal
EKVX NSCLC = system: EKVX NSCLC
SNB-19 CNS = system: SNB-19 CNS
NCI-H226 lung = system: NCI-H226 lung
HOP-62 NSCLC = system: HOP-62 NSCLC
LOX IMVI melanoma = system: LOX IMVI melanoma
SK-MEL-5 melanoma = system: SK-MEL-5 melanoma
IGROV1 ovarian = system: IGROV1 ovarian
U251 CNS = system: U251 CNS
SF-295 CNS = system: SF-295 CNS
MALME-3M melanoma = system: MALME-3M melanoma
SK-OV-3 ovarian = system: SK-OV-3 ovarian
MDA-N = system: MDA-N
COLO 205 colon = system: COLO 205 colon

Measured: TGI

CCOC(=O)c1c(SCCO)n(-c2ccccc2)c(=S)n(-c2ccccc2)c1=O
> 100 µM: UACC-257 melanoma | OVCAR-4 ovarian | HOP-92 NSCLC | 786-0 renal | DU-145 prostate | SR leukemia | SK-MEL-28 melanoma | A549 NSCLC | CAKI-1 renal | T-47D breast | BT-549 breast | SK-MEL-2 melanoma | UO-31 renal | SF-268 CNS | OVCAR-8 ovarian | TK-10 renal | NCI-H23 lung | PC-3 prostate | MCF7 breast | MDA-MB-435 | HS 578T breast | HCT-15 colon | HT29 colon | MOLT-4 leukemia | OVCAR-3 ovarian | OVCAR-5 ovarian | K-562 leukemia | RPMI-8226 leukemia | SW-620 colon | CCRF-CEM leukemia | KM12 colon | M14 melanoma | NCI-H460 lung | UACC-62 melanoma | NCI/ADR-RES ovarian | HL-60(TB) leukemia | ACHN renal | SNB-75 CNS | NCI-H522 lung | HCT-116 colon | SN12C renal | EKVX NSCLC | SNB-19 CNS | NCI-H226 lung | HOP-62 NSCLC | LOX IMVI melanoma | SK-MEL-5 melanoma | IGROV1 ovarian | U251 CNS | SF-295 CNS | MALME-3M melanoma | SK-OV-3 ovarian | MDA-N | COLO 205 colon
